# Test results as given in patent US11833116B2 (TCI CO., LTD., priority 2020, dated 2023).
# Legend:
# [1] = tested on: mouse brain neuroblastoma cells (Neuro2a); assay: Inhibition of ROS generation (hydrogen peroxide treatment), DCFH-DA flow cytometry; format: cell-based
# Procedure: A medium used was a DMEM medium (Dulbecco's Modified Eagle Medium; brand: Gibco) supplemented with 10 vol % of fetal bovine serum (FBS; brand: Gibco) and 1 vol % of penicillin/streptomycin (brand: Gibco), hereinafter referred to as a cell medium. A DCFH-DA solution used was a reaction solution prepared by dissolving 2,7-dichloro-dihydro-fluorescein diacetate (DCFH-DA, product code SI-D6883, purchased from Sigma) in dimethyl sulfoxide (DMSO, purchased from Sigma, product code SI-D6883-50MG). […]
# Flow cytometry (manufacturer: Beckman; Catalog No. 660519) was used to detect a fluorescence signal of DCFH-DA in the cell solutions to be assayed in each group. The excitation wavelength of fluorescence detection used was 450 nm to 490 nm, and the emission wavelength was 510 nm to 550 nm. Since DCFH-DA will first be hydrolyzed to DCFH (dichloro-dihydro-fluorescein) after entering the Neuro2a cells, and then oxidized by reactive oxygen species (ROS) into DCF (dichloro-fluorescein) that emits green fluorescence, the fluorescence intensity of the Neuro2a cells treated with the DCFH-DA can reflect the content of reactive oxygen species (ROS) in the Neuro2a cells, and from this, the ratio of the number of cells with highly expressed reactive oxygen species (ROS) in the Neuro2a cells to the number of original cells can be known.
# [2] = tested on: mouse brain neuroblastoma cells (Neuro2a); assay: Mitochondrial activity (JC-1 mitochondrial membrane potential, flow cytometry); format: cell-based; details: 0.25 vol %, 24 hours, control group = 100%
# Source text: A medium used was a DMEM medium (Dulbecco's Modified Eagle Medium; brand: Gibco) supplemented with 10 vol % of fetal bovine serum (FBS; brand: Gibco) and 1 vol % of penicillin/streptomycin (brand: Gibco), hereinafter referred to as a cell medium. A mitochondrial activity test method used was to use a mitochondrial membrane potential detection kit (BD™ MitoScreen (JC-1) kit, model 551302) to measure the mitochondrial membrane potential and perform mitochondrial activity analysis. The mitochondrial membrane potential detection kit included a JC-1 stain (freeze-dried) and a 10×assay buffer. Before use, the 10×assay buffer was diluted 10 times with 1×PBS to form a 1×assay buffer. 130 μL of DMSO was added to the JC-1 stain (freeze-dried) to form a JC-1 stock solution. Then, the JC-1 stock solution was diluted with the 1×assay buffer to form a JC-1 working solution (JC-1 mitochondrial specific stain). The dilution ratio of the JC-1 stock solution to the 1×assay buffer was 1:100.
# First, 1×10^5 mouse neuroblastoma cells (ATCC CCL-131; hereinafter referred to as Neuro2a cells) were added into a six-well cell culture plate containing 2 mL of the above cell medium per well, and cultured at 37° C. for 24 hours. […]
# PARP2 gene = assay: Antiaging-related gene expression in PBMC cells (qRT-PCR): PARP2; format: cell-based, human; details: 0.25 vol %, 24 hours, control group = 1.00
# Source text: (§1) Herein, the tested antiaging-related genes are antiaging genes including CCT5 gene (Gene ID: 22948), CCT6A gene (Gene ID: 908), CCT7 gene (Gene ID: 10574), CCT8 gene (Gene ID: 10694), PARP2 gene (Gene ID: 10038), Parkin gene (Gene ID: 5071), Atg1 gene (Gene ID: 8408), Arg8 gene (Gene ID: 11345), FOX) gene (Gene ID: 2308), SIRT1 gene (Gene ID: 23411), […] gene (Gene ID: 55191), and MRPS3 gene (Gene ID: 64969). A medium used was an X-VIVOTM 15 serum-free hematopoietic cell medium (manufacturer: Lonza; product No.: 04-[…]) supplemented with 10 vol % of fetal bovine serum (FBS; brand: Gibco) and 1 vol % of penicillin/streptomycin (brand: Gibco), hereinafter referred to as a cell medium. […] Then, by using an ABI StepOnePlusTM Real-Time PCR system (Thermo Fisher Scientific Company, USA), KAPA SYBR FAST (purchased from Sigma Company, USA, No. 38220000000) and primers of Table 1 (SEQ ID NO: 1 to SEQ ID NO: 24), a quantitative real-time reverse transcription polymerase chain reaction was performed on the cDNA of each group to observe the expression levels of antiaging-related genes in PBMC cells. […] Herein, the quantitative real-time reverse transcription polymerase chain reaction of the cDNA can indirectly quantify an mRNA expression level of a gene, and then infer the expression level of protein encoded by the gene. […]
# CCT5 gene = assay: Antiaging-related gene expression in PBMC cells (qRT-PCR): CCT5; format: cell-based, human; details: 0.25 vol %, 24 hours, control group = 1.00
# Source text: as §1
# CCT6A gene = assay: Antiaging-related gene expression in PBMC cells (qRT-PCR): CCT6A; format: cell-based, human; details: 0.25 vol %, 24 hours, control group = 1.00
# Source text: as §1
# CCT7 gene = assay: Antiaging-related gene expression in PBMC cells (qRT-PCR): CCT7; format: cell-based, human; details: 0.25 vol %, 24 hours, control group = 1.00
# Source text: as §1
# CCT8 gene = assay: Antiaging-related gene expression in PBMC cells (qRT-PCR): CCT8; format: cell-based, human; details: 0.25 vol %, 24 hours, control group = 1.00
# Source text: as §1
# Parkin gene = assay: Antiaging-related gene expression in PBMC cells (qRT-PCR): Parkin; format: cell-based, human; details: 0.25 vol %, 24 hours, control group = 1.00
# Source text: Herein, the tested antiaging-related genes are antiaging genes including CCT5 gene (Gene ID: 22948), CCT6A gene (Gene ID: 908), CCT7 gene (Gene ID: 10574), CCT8 gene (Gene ID: 10694), PARP2 gene (Gene ID: 10038), Parkin gene (Gene ID: 5071), Atg1 gene (Gene ID: 8408), Arg8 gene (Gene ID: 11345), FOX) gene (Gene ID: 2308), SIRT1 gene (Gene ID: 23411), NADSYN gene (Gene ID: 55191), and MRPS3 gene (Gene ID: 64969).
# A medium used was an X-VIVO™ 15 serum-free hematopoietic cell medium (manufacturer: Lonza; product No.: 04-418Q) supplemented with 10 vol % of fetal bovine serum (FBS; brand: Gibco) and 1 vol % of penicillin/streptomycin (brand: Gibco), hereinafter referred to as a cell medium. […]
# PBMC cells were collected from each group, and RNA of each group was extracted with an RNA extraction reagent kit (purchased from Geneaid, Taiwan, China, Lot No. FC24015-G). […] Then, by using an ABI StepOnePlus™ Real-Time PCR system (Thermo Fisher Scientific Company, USA), KAPA SYBR FAST (purchased from Sigma Company, USA, No. 38220000000) and primers of Table 1 (SEQ ID NO: 1 to SEQ ID NO: 24), a quantitative real-time reverse transcription polymerase chain reaction was performed on the cDNA of each group to observe the expression levels of antiaging-related genes in PBMC cells. […]
# Atg1 gene = assay: Antiaging-related gene expression in PBMC cells (qRT-PCR): Atg1; format: cell-based, human; details: 0.25 vol %, 24 hours, control group = 1.00
# Source text: as §1
# Atg8 gene = assay: Antiaging-related gene expression in PBMC cells (qRT-PCR): Atg8; format: cell-based, human; details: 0.25 vol %, 24 hours, control group = 1.00
# Source text: as §1
# FOXO gene = assay: Antiaging-related gene expression in PBMC cells (qRT-PCR): FOXO; format: cell-based, human; details: 0.25 vol %, 24 hours, control group = 1.00
# Source text: as §1
# SIRT1 gene = assay: Antiaging-related gene expression in PBMC cells (qRT-PCR): SIRT1; format: cell-based, human; details: 0.25 vol %, 24 hours, control group = 1.00
# Source text: as §1
# NADSYN gene = assay: Antiaging-related gene expression in PBMC cells (qRT-PCR): NADSYN; format: cell-based, human; details: 0.25 vol %, 24 hours, control group = 1.00
# Source text: as §1
# MRPS5 gene = assay: Antiaging-related gene expression in PBMC cells (qRT-PCR): MRPS5; format: cell-based, human; details: 0.25 vol %, 24 hours, control group = 1.00
# Source text: as §1
compound,measurement,setting,value
NC(=O)c1ccc[n+]([C@@H]2O[C@H](COP(=O)([O-])O)[C@@H](O)[C@H]2O)c1 [nicotinamide mononucleotide],relative ROS production,"[1]; 24 h with 0.25 vol % yeast powder or 10 μL of 200 mM synthetic NMN, then hydrogen peroxide 1 hour, blank group = 100%, H2O2 control group 487.6%",452.5%
same,"decrease in relative ROS production versus H2O2 control (percentage points, blank = 100%)","[1]; hydrogen peroxide, versus control group 487.6%",35.1%
same,relative JC-1 accumulation,[2],42.93%
same,relative expression of the PARP2 gene,PARP2 gene,0.67
same,relative expression of the CCT5 gene,CCT5 gene,1.55
same,relative expression of the CCT6A gene,CCT6A gene,1.62
same,relative expression of the CCT7 gene,CCT7 gene,1.0672
same,relative expression of the CCT8 gene,CCT8 gene,1.72
same,relative expression of the Parkin gene,Parkin gene,1.61
same,relative expression of the Atg1 gene,Atg1 gene,1.25
same,relative expression of the Atg8 gene,Atg8 gene,1.02
same,relative expression of the FOXO gene,FOXO gene,0.79
same,relative expression of the SIRT1 gene,SIRT1 gene,4.30
same,relative expression of the NADSYN gene,NADSYN gene,5.84
same,relative expression of the MRPS5 gene,MRPS5 gene,0.80
